From patent US12421251B2, “Cystic fibrosis transmembrane conductance regulator modulating agents” (VERTEX PHARMACEUTICALS INCORPORATED, priority 2019, dated 2025)

Target: CFTR (Homo sapiens, UniProt P13569)
Assay: Membrane potential dye assay (FLIPR Tetra) of CFTR-mediated chloride transport in enteroid cells
Type: cell-based
Conditions: human intestinal epithelial enteroid cells, 18-24 h incubation with test compound, acute 10 μM forskolin and 300 nM Compound III; for EC50: CFTR-mediated chloride transport; for Max. Activity: chloride transport as % of triple combination positive control (% Activity)
Experimental: Base medium (ADF+++) consisted of Advanced DMEM/Ham's F12, 2 mM Glutamax, 10 mM HEPES, 1 μg/ml penicillin/streptomycin.
Intestinal enteroid maintenance medium (IEMM) consisted of ADF+++, 1×B27 supplement, 1×N2 supplement, 1.25 mM N-acetyl cysteine, 10 mM Nicotinamide, 50 ng/mL hEGF, 10 nM Gastrin, 1 μg/mL hR-spondin-1, 100 ng/mL hNoggin, TGF-b type 1 inhibitor A-83-01, 100 μg/mL Primocin, 10 μM P38 MAPK inhibitor SB202190.
Bath 1 Buffer consisted of 1 mM MgCl2, 160 mM NaCl, 4.5 mM KCl, 10 mM HEPES, 10 mM Glucose, 2 mM CaCl2.
Chloride Free Buffer consisted of 1 mM Magnesium Gluconate, 2 mM Calcium Gluconate, 4.5 mM Potassium Gluconate, 160 mM Sodium Gluconate, 10 mM HEPES, 10 mM Glucose.
Bath1 Dye Solution consisted of Bath 1 Buffer, 0.04% Pluronic F127, 20 μM Methyl Oxonol, 30 μM CaCCinh-A01, 30 μM Chicago Sky Blue.
Chloride Free Dye Solution consisted of Chloride Free Buffer, 0.04% Pluronic F127, 20 μM Methyl Oxonol, 30 μM CaCCinh-A01, 30 μM Chicago Sky Blue.
Chloride Free Dye Stimulation Solution consisted of Chloride Free Dye Solution, 10 μM forskolin, 100 μM IBMX, and 300 nM Compound III.
Human intestinal epithelial enteroid cells were obtained from the Hubrecht Institute for Developmental Biology and Stem Cell Research, Utrecht, The Netherlands and expanded in T-Flasks as previously described (Dekkers J F, Wiegerinck C L, de Jonge H R, Bronsveld I, Janssens H M, de Winter-de Groot K M, Brandsma A M, de Jong N W M, Bijvelds M J C, Scholte B J, Nieuwenhuis E E S, van den Brink S, Clevers H, van der Ent C K, Middendorp S and M Beekman J M. A functional CFTR assay using primary cystic fibrosis intestinal organoids. Nat. Med. 2013 July; 19(7):939-45.
Enteroid Cell Harvesting and Seeding
Cells were recovered in cell recovery solution, collected by centrifugation at 650 rpm for 5 min at 4° C., resuspended in TryPLE and incubated for 5 min at 37° C. Cells were then collected by centrifugation at 650 rpm for 5 min at 4° C. and resuspended in IEMM containing 10 μM ROCK inhibitor (RI). The cell suspension was passed through a 40 μm cell strainer and resuspended at 1×10^6 cells/mL in IEMM containing 10 μM RI. Cells were seeded at 5000 cells/well into multi-well plates and incubated for overnight at 37° C., 95% humidity and 5% CO2 prior to assay.
Membrane Potential Dye Assay
Enteroid cells were incubated with test compound in IEMM for 18-24 h at 37° C., 95% humidity and 5% CO2. Following compound incubations, a membrane potential dye assay was employed using a FLIPR Tetra to directly measure the potency and efficacy of the test compound on CFTR-mediated chloride transport following acute addition of 10 μM forskolin and 300 nM N-[2,4-bis(1,1-dimethylethyl)-5-hydroxyphenyl]-1,4-dihydro-4-oxoquinoline-3-carboxamide. Briefly, cells were washed 5 times in Bath 1 Buffer. Bath 1 Dye Solution was added and the cells were incubated for 25 min at ambient temperature. Following dye incubation, cells were washed 3 times in Chloride Free Dye Solution. Chloride transport was initiated by addition of Chloride Free Dye Stimulation Solution and the fluorescence signal was read for 15 min. The CFTR-mediated chloride transport for each condition was determined from the AUC of the fluorescence response to acute forskolin and 300 nM N-[2,4-bis(1,1-dimethylethyl)-5-hydroxyphenyl]-1,4-dihydro-4-oxoquinoline-3-carboxamide stimulation. Chloride transport was then expressed as a percentage of the chloride transport following treatment with 1 μM (14S)-8-[3-(2-{Dispiro[2.0.2.1]heptan-7-yl}ethoxy)-1H-pyrazol-1-yl]-12,12-dimethyl-2λ^6-thia-3,9,11,18,23-pentaazatetracyclo[17.3.1.111,14.05,10]-tetracosa-1(22),5,7,9,19(23),20-hexaene-2,2,4-trione, 3 μM ((R)-1-(2,2-difluorobenzo[d][1,3]dioxol-5-yl)-N-(1-(2,3-dihydroxypropyl)-6-fluoro-2-(1-hydroxy-2-methylpropan-2-yl)-1H-indol-5-yl)cyclopropanecarboxamide and 300 nM acute N-[2,4-bis(1,1-dimethylethyl)-5-hydroxyphenyl]-1,4-dihydro-4-oxoquinoline-3-carboxamide triple combination positive control (% Activity). […]

Sequence of CFTR (P13569 with tags, fused parts or gaps DEL508-508): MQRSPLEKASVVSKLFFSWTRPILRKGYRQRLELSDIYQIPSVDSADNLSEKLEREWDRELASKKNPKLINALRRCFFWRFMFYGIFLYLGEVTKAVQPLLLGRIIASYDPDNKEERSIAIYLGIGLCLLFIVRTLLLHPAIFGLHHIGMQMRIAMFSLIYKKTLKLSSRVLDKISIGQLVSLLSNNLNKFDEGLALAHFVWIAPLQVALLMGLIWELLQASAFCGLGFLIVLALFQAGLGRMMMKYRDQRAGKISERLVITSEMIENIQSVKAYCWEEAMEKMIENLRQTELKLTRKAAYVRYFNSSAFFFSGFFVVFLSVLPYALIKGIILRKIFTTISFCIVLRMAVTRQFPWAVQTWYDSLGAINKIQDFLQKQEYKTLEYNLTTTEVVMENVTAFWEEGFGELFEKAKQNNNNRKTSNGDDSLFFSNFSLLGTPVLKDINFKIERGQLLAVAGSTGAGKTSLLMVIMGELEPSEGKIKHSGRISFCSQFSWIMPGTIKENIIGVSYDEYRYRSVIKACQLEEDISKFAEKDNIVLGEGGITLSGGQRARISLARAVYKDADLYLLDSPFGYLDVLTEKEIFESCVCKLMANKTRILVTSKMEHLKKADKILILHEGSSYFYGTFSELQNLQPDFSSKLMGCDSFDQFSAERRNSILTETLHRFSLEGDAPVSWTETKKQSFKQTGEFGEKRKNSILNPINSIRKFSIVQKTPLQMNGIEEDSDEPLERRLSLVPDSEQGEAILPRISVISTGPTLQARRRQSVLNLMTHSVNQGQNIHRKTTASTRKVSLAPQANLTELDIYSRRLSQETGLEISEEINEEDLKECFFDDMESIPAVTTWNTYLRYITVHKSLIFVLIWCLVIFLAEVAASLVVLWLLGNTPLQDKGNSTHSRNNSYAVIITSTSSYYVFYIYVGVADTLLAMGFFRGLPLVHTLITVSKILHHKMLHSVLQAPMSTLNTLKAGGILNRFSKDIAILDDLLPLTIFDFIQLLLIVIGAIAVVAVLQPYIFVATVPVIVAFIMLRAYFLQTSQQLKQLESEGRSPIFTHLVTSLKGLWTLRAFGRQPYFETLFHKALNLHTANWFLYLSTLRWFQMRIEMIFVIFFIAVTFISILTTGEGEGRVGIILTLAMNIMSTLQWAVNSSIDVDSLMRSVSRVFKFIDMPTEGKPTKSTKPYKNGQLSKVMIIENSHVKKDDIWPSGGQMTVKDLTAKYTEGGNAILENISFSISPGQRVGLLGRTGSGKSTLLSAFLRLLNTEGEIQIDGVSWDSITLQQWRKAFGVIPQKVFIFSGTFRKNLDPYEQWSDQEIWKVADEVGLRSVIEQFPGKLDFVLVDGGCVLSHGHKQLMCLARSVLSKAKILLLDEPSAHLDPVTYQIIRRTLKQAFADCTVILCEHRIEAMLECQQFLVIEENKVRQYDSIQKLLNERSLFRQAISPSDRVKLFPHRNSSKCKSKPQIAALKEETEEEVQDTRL

Structure (SMILES)	EC50	Max. Activity
Cc1cccc(C)c1-c1cc2nc(n1)NS(=O)(=O)c1cccc(c1)C(=O)N(C1CC3(CC3)C1)[C@H](CC(C)C)CO2 [Compound I, (11R)-6-(2,6-dimethylphenyl)-11-(2-methylpropyl)-12-{spiro[2.3]hexan-5-yl}-9-oxa-2λ^6-thia-3,5,12,19-tetraazatricyclo[12.3.1.14,8]nonadeca-1(17),4(19),5,7,14(18),15-hexaene-2,2,13-trione]	< 1 µM	+++ (+++ is >60%)
[2H]C1(N2C(=O)c3cccc(c3)S(=O)(=O)Nc3nc(cc(-c4c(C)cccc4C)n3)OC[C@H]2CC(C)C)CC2(CC2)C1 [Compound Ic, (11R)-12-(5-Deuteriospiro[2.3]hexan-5-yl)-6-(2,6-dimethylphenyl)-11-isobutyl-2,2-dioxo-9-oxa-2-thia-3,5,12,19-tetrazatricyclo[12.3.1.14,8]nonadeca-1(18),4,6,8(19),14,16-hexaen-13-one]	< 1 µM	+++ (+++ is >60%)

Next, values leading:

EC50	Max. Activity	Structure (SMILES)
< 1 µM	+++ (+++ is >60%)	[2H]C1([2H])C([2H])([2H])C12CC(N1C(=O)c3cccc(c3)S(=O)(=O)Nc3nc(cc(-c4c(C)cccc4C)n3)OC[C@H]1CC(C)C)C2 [Compound Ia, (11R)-6-(2,6-Dimethylphenyl)-11-(2-methylpropyl)-12-[(1,1,2,2-tetradeutero)spiro[2.3]hexan-5-yl]-9-oxa-2λ^6-thia-3,5,12,19-tetraazatricyclo[12.3.1.14,8]nonadeca-1(17),4(19),5,7,14(18),15-hexaene-2,2,13-trione]
< 1 µM	+++ (+++ is >60%)	[2H]C1([2H])C2(CC2)C([2H])([2H])C1([2H])N1C(=O)c2cccc(c2)S(=O)(=O)Nc2nc(cc(-c3c(C)cccc3C)n2)OC[C@H]1CC(C)C [Compound Ib, (11R)-6-(2,6-Dimethylphenyl)-11-isobutyl-2,2-dioxo-12-(4,4,5,6,6-pentadeuteriospiro[2.3]hexan-5-yl)-9-oxa-2-thia-3,5,12,19-tetrazatricyclo[12.3.1.14,8]nonadeca-1(18),4,6,8(19),14,16-hexaen-13-one]
< 1 µM	+++ (+++ is >60%)	[2H]C([2H])([2H])c1cccc(C([2H])([2H])[2H])c1-c1cc2nc(n1)NS(=O)(=O)c1cccc(c1)C(=O)N(C1CC3(CC3)C1)[C@H](CC(C)C)CO2 [Compound Id, (11R)-6-[2,6-di(trideutero)methylphenyl]-11-(2-methylpropyl)-12-{spiro[2.3]hexan-5-yl}-9-oxa-2λ^6-thia-3,5,12,19-tetraazatricyclo[12.3.1.14,8]nonadeca-1(17),4(19),5,7,14(18),15-hexaene-2,2,13-trione]
